Laboratory results as given in patent US10669287B2, “Curcumin-boron complex and pharmaceutical containing same” (JAPAN SCIENCE AND TECHNOLOGY AGENCY, priority 2016, dated 2020).
Read-outs that look alike come from different tables or passages of the source.

Assays:
Arctic Aβ1-38 = molecular target: T1, Arctic Aβ1-38 (Homo sapiens, UniProt P05067, E693G); format: biochemical; conditions: mouse brain lysate, riboflavin, light irradiation
T1 construct: The peak intensity decreased by 36%/53%/74% for Arctic Aβ1-38; from tissue; host or cells: cerebral cortex and hippocampus of App knock-in mouse
Procedure: The brain excised from an eight-month-old App knock-in (App^NL-C-F/NL-C-F) mouse (Alzheimer's model mouse) was separated into the cerebral cortex, the hippocampus, and the residual brain tissues. The cerebral cortex and the hippocampus were homogenized together in a phosphate buffer saline, and the suspension was stored at −80° C. […] At an arbitrary point of time, an arbitrary aliquot of the reaction mixture was diluted with formic acid to a final concentration of 70%, concentrated, and redissolved in a 6 M aqueous solution of urea.

Aβ peptide = molecular target: T2, Aβ peptide (Homo sapiens, UniProt P05067); assay: Aβ selectivity of oxygenation, Test Example 9; format: biochemical; conditions: peptide 20 μM, riboflavin 5 μM, 500 nm, 37° C., 30 minutes
T2 construct: Aβ1-42 isopeptide (concentration: 250 μM in 0.1% aqueous solution of trifluoroacetic acid)
Procedure: (§1) Aβ1-42 isopeptide (concentration: 250 μM in 0.1% aqueous solution of trifluoroacetic acid), angiotensin IV (200 μM aqueous solution), Met-enkephalin (200 μM aqueous solution), and somatostatin (200 μM aqueous solution) were added to a phosphate buffer or phosphate buffer saline (pH 7.4) (with 0.1 M aqueous solution of sodium hydroxide, as necessary) so that a final peptide concentration of 20 μM or 40 μM (pH 7.4) was reached. Before being subjected to oxygenation reaction, the Aβ1-42 solution was incubated at 37° C. for 1 to 3 hours. The phosphate buffer containing 40 μM of Aβ was diluted with a Dulbecco's modified Eagle's medium (DMEM, Life Technologies) containing 0.1% horse serum and buffered with 25 mM of 4-(2-hydroxyethyl)-1-piperazineethanesulfonic acid (HEPES).
(§2) Solutions of the compounds with a final concentration of 2 μM were used for evaluation of oxygenation of Aβ1-42. Solutions of the compounds with a final concentration of 5 μM were used for evaluation of peptide selectivity. […] A control group without light irradiation was additionally prepared. Reaction was analyzed through monitor analysis with a MALDI-TOF MS. Degree of oxygenation was determined as a ratio: degree of oxygenation (%)=(total of MS intensities for n[O] adducts)/(MS intensity for native+total of MS intensities for n[O] adducts)×100. Aliquots of each reaction solution were desalted with a ZipTip U-C18 (Merck Millipore), as necessary, before mass spectrometry.

Met-enkephalin (ME) = molecular target: T3, Met-enkephalin (ME) (Homo sapiens, UniProt P01210); assay: Aβ selectivity of oxygenation, Test Example 9; format: biochemical; conditions: peptide 20 μM, riboflavin 5 μM, 500 nm, 37° C., 30 minutes
T3 construct: angiotensin-IV (AT4), Met-enkephalin (ME), or somatostatin (Sst) (20 μM in each case)
Procedure: as §1, §2

angiotensin-IV (AT4) = molecular target: T4, angiotensin-IV (AT4) (Homo sapiens, UniProt P01019); assay: Aβ selectivity of oxygenation, Test Example 9; format: biochemical; conditions: peptide 20 μM, riboflavin 5 μM, 500 nm, 37° C., 30 minutes
T4 construct: angiotensin-IV (AT4), Met-enkephalin (ME), or somatostatin (Sst) (20 μM in each case)
Procedure: as §1, §2

somatostatin (Sst) = molecular target: T5, somatostatin (Sst) (Homo sapiens, UniProt P61278); assay: Aβ selectivity of oxygenation, Test Example 9; format: biochemical; conditions: peptide 20 μM, riboflavin 5 μM, 500 nm, 37° C., 30 minutes
T5 construct: angiotensin-IV (AT4), Met-enkephalin (ME), or somatostatin (Sst) (20 μM in each case)
Procedure: as §1, §2

PC 12 cells [1] = assay: Cytotoxicity under light irradiation, WST-8 cell viability, Test Example 2; format: cell-based, rat; conditions: LED 660 nm, 10 mW, 5 minutes, then 48 hours
Procedure: A culture medium for rat adrenal medulla-derived pheochromocytoma PC 12 cells (purchased from RIKEN, Japan) seeded on a poly-D-lysine-coated 96-well plate was replaced with 75 μL of a Dulbecco's modified Eagle's medium containing 0.1% horse serum, and the culture was incubated in a 5% CO2 atmosphere at 37° C. for 1 day, and 25 μL of a phosphate buffer saline (pH 7.4) containing a inventive compound was then added thereto. Thereafter, the mixed solution was incubated under LED irradiation (wavelength: 660 nm, 10 mW) (without light irradiation for dark) at 37° C. for 5 minutes. Further, the cell culture plate containing the reaction solution was incubated in a 5% CO2 atmosphere at 37° C. for 48 hours. Finally, the Cell Count Reagent SF (10 μL: purchased from NACALAI TESQUE, INC.) containing WST-8 was added, and the culture was incubated in a 5% CO2 atmosphere at 37° C. for 3 hours, and thereafter the cell viability was determined from the absorbance at 450 nm (reference wavelength: 655 nm).

[2] = Stability of catalyst in neutral phosphate buffer without or under light irradiation (HPLC), Test Example 5; format: physicochemical; conditions: under light irradiation (660 nm)
Procedure: A neutral phosphate buffer containing a catalyst was incubated without light irradiation or under light irradiation (660 nm), and thereafter ethanol containing benzyl alcohol (as an internal standard) was added thereto, and analysis was performed by using HPLC.

Aβ1-42 [3] = molecular target: T6, Aβ1-42 (Homo sapiens, UniProt P05067); assay: Degree of oxygenation of pre-aggregated Aβ1-42 (MALDI-TOF MS), Test Example 10; format: biochemical; conditions: pre-aggregated Aβ1-42 20 μM, catalyst 2 μM, 37° C., 30 minutes; for Degree of oxygenation (%) of Aβ42 (λ = 660 nm): phosphate buffer pH 7.4, 660 nm; for Degree of oxygenation (%) of Aβ42 (λ = 780 nm): phosphate buffer pH 7.4, 780 nm (14 mW)
T6 construct: phosphate buffer (pH 7.4)/cell culture solution (containing 0.1% horse serum) (1:3) containing Aβ1-42 (10 μM)
Procedure: as §1
Solutions of the compounds with a final concentration of 2 μM were used for evaluation of oxygenation of Aβ1-42. Solutions of the compounds with a final concentration of 5 μM were used for evaluation of peptide selectivity. Each mixture was subjected to light irradiation with an LED (wavelength: 500, 660, or 780 nm) at a distance of approximately 5 to 10 cm at room temperature. A control group without light irradiation was additionally prepared. Reaction was analyzed through monitor analysis with a MALDI-TOF MS. Degree of oxygenation was determined as a ratio: degree of oxygenation (%)=(total of MS intensities for n[O] adducts)/(MS intensity for native+total of MS intensities for n[O] adducts)×100. Aliquots of each reaction solution were desalted with a ZipTip U-C18 (Merck Millipore), as necessary, before mass spectrometry.
a: A phosphate buffer (pH 7.4) solution containing pre-aggregated Aβ1-42 (20 μM, incubated at 37° C. for 3 hours) and a catalyst (2 μM) was subjected to light irradiation (wavelength: 660 nm) at 37° C. for 30 minutes. Thereafter, the reaction mixture was analyzed by using a MALDI-TOF MS.
a: A phosphate buffer (pH 7.4) containing pre-aggregated Aβ1-42 (20 μM, obtained through incubation at 37° C. for 3 hours) and a catalyst (2 μM) were subjected to light irradiation at 780 nm (14 mW) at 37° C. for 30 minutes. The reaction mixture was analyzed by using a MALDI-TOF MS.

PC 12 cells [4] = format: cell-based
Procedure: Rat pheochromocytoma PC 12 cells were suspended with DMEM containing 5% horse serum and 10% fetal bovine serum, seeded in a poly-D-lysine-coated 96-well plate at a concentration of 10,000 cells per well, and incubated in a 5% carbon dioxide atmosphere at 37° C. for 3 days. After the solvent was removed, the cells were washed with 150 μL of serum-free DMEM, and DMEM (75 μL) containing 0.1% horse serum was added thereto. Thereafter, the 96-well plate was incubated in a 5% carbon dioxide atmosphere at 37° C. for 1 day for use in oxygenation reaction. In oxygenation reaction, the compound E (100 μM dimethyl sulfoxide solution) was added to a phosphate buffer saline containing Aβ (aggregated in advance for 3 hours, 40 μM) and 25 μL of the above cell solution (final concentration of Aβ: 10 μM, final concentration of compound E: 1 μM). The mixture was irradiated with an LED (wavelength: 780 nm) at a distance of approximately 5 cm at 37° C. for 5 minutes. The cells were incubated in a 5% carbon dioxide atmosphere at 37° C. for 48 hours. The cell viability was measured by using the Cell Count Reagent SF (NACALAI TESQUE, INC., Kyoto, Japan) with WST-8 (2-(2-methoxy-4-nitrophenyl)-3-(4-nitrophenyl)-5-(2,4-disulfophenyl)-2H-tetrazolium).
b: LC50 (dark) indicates the toxicity of a compound itself, and LC50 (light) indicates the phototoxicity of a compound. The PC 12 cells were placed in dark or subjected to photocatalytic treatment under light irradiation (wavelength: 660 nm), and incubated at 37° C. for 5 minutes, and then in a 5% carbon dioxide atmosphere at 37° C. for 48 hours, for which the cell viability was analyzed (n=5, mean±SEM).
b: The PC 12 cells were treated together with a photocatalyst (1 μM) at 37° C. for 5 minutes in dark or under light irradiation (wavelength: 780 nm), and thereafter the cell viability was analyzed (n=3, mean±SEM).

[5] = Maximum wavelength λmax of photocatalysts; format: physicochemical
Aβ1-42 [6] = molecular target: T6, Aβ1-42; assay: In vitro oxygenation experiment using Aβ1-42 as a substrate (MALDI-TOF MS), Test Example 1; format: biochemical; conditions: test compound 1 μM, Aβ1-42 10 μM, 37° C.
Procedure: An in vitro oxygenation experiment using Aβ1-42 as a substrate was conducted to confirm that each of the inventive compounds actually have Aβ oxygenation activity. A test compound (1 μM in each case) was added to phosphate buffer (pH 7.4)/cell culture solution (containing 0.1% horse serum) (1:3) containing Aβ1-42 (10 μM), and incubated under LED irradiation (wavelength: 660 nm, 730 nm) at 37° C., and then the reaction was tracked by using a mass spectrometer (MALDI-TOF MS). The native Aβ1-42 and the Na^+ adduct were mainly observed before light irradiation. After light irradiation, an ion peak indicating the presence of the oxygenated form was observed over time (FIG. 1, FIG. 2).

Aβ1-42 [7] = molecular target: T6, Aβ1-42; assay: Oxygenation under mouse skin, Test Example 7; format: in vivo; conditions: microtube with Aβ1-42 20 μM aggregated 3 hours, implanted in back skin, LED 780 nm, 30 minutes
Procedure: A microtube containing a phosphate buffer containing Aβ1-42 (20 μM, aggregated in advance for 3 hours) and the compound E or a compound 3 [9-(6-bromo-3-methyl-1,3-benzotriazol-3-ium-2-yl)-julolidine] was implanted in the back skin of a wild mouse, and light irradiation with an LED lamp was performed from the outside of the mouse body at a wavelength of 780 nm for 30 minutes (FIG. 10). As a control experiment, another microtube containing the same components (Aβ1-42 (20 μM, aggregated in advance for 3 hours) and the compound E or the compound 3) was directly subjected to light irradiation outside of the mouse body. The reaction mixture was analyzed by using a MALDI-TOF MS, and then subjected to ZipTip treatment for analysis. The percentage of oxygenation ratio was calculated from the percentage of oxygenation ratio under the skin and the oxygenation ratio outside of the skin “[oxygenation ratio under mouse skin/oxygenation ratio outside of mouse skin]×100”.

SMILES	toxicity under light irradiation (ranking) (PC 12 cells [1])	stability of catalyst (ranking) [2]	Degree of oxygenation (%) of Aβ42 (λ = 660 nm) (Aβ1-42 [3])	Maximum wavelength λmax (nm) ([5]; Table 1)	Degree of oxygenation (%) of Aβ42 (λ = 780 nm) (Aβ1-42 [3])	Maximum wavelength λmax (nm) ([5]; Table 2)	other results
Cc1cc2nc3c(=O)[nH]c(=O)nc-3n(C[C@H](O)[C@H](O)[C@H](O)CO)c2cc1C [riboflavin, reference compound]	–	–	–	–	–	–	consumption of Aβ1-38 (Arctic Aβ1-38): consumed to a significant degree; yield of oxygenated Aβ (Aβ peptide): 43%; yield of oxygenated Met-enkephalin (Met-enkephalin (ME)): 50%; yield of oxygenated angiotensin-IV (angiotensin-IV (AT4)): 35%; yield of oxygenated somatostatin (somatostatin (Sst)): 60%
CN(C)c1ccc(/C=C/C2=C(Br)C(/C=C/c3ccc4c(c3)CCCN4CCCCCC(=O)O)=[O+][B-](F)(F)O2)cc1 [Compound L]	higher in the order of the compound J, the compound K, and the compound L	stability was the lowest	73%	623 nm	–	–	CC50 (PC 12 cells [4]): 24 nM
O=C(O)CCCCCN1CCCc2cc(/C=C/C3=[O+][B-](F)(C(F)(F)F)OC(/C=C/c4cc5c6c(c4)CCCN6CCC5)=C3Br)ccc21 (centres unmarked) [Compound I]	–	stability was higher	–	–	52%	645 nm	oxygenation of Aβ1-42 under light irradiation (Aβ1-42 [6]; LED irradiation at both 660 nm and 730 nm): oxygenation of the Aβ proceeded; CC50 (PC 12 cells [4]; PC 12 cells in dark, 37° C., 5 minutes, n=3, mean±SEM, Table 2, read-out: LC50 (dark)): > 10000 nM; CC50 (PC 12 cells [4]; PC 12 cells, light irradiation 780 nm, 37° C., 5 minutes, n=3, mean±SEM, Table 2, read-out: LC50 (light)): 1670 nM
CN(C)c1ccc(/C=C/C2=C(Br)C(/C=C/c3ccc4c(c3)CCCN4CCCCCC(=O)O)=[O+][B-](F)(C(F)(F)C(F)(F)F)O2)cc1 (centres unmarked) [Compound J]	higher in the order of the compound J, the compound K, and the compound L	higher in the order of BFCF3 (compound K)<BFCF2CF3 (compound J)	79%	622 nm	41%	620 nm	–
CN(C)c1ccc(/C=C/C2=CC(=C/C=C3C=CC(=[N+](C)C)C=C3)/O[B-](F)(F)O2)cc1 [CRANAD-2, (T-4)-[(1E,6E)-1,7-bis[4-(dimethylamino)phenyl]-1,6-heptadiene-3,5-dionato-κO^3,κO^5]difluoroboron, reference compound]	–	–	trace	579 nm	–	–	–
C[n+]1c2ccc(Br)cc2nn1-c1cc2c3c(c1)CCCN3CCC2 [Compound 3, 9-(6-bromo-3-methyl-1,3-benzotriazol-3-ium-2-yl)-julolidine, reference compound]	–	–	trace	456 nm	–	–	percentage of oxygenation ratios [oxygenation ratio under mouse skin/oxygenation ratio outside of mouse skin]×100 (Aβ1-42 [7]): 12%
CN(C)c1ccc(/C=C/C2=C(I)C(/C=C/c3ccc4c(c3)CCCN4CCCCCC(=O)O)=[O+][B-](F)(C(F)(F)F)O2)cc1 (centres unmarked) [M]	iodine provides more reduced toxicity than in the case of bromine	–	–	–	–	–	oxygenation of Aβ1-42 under light irradiation (Aβ1-42 [6]; LED irradiation at 730 nm): oxygenation of the Aβ proceeded
O=C(O)CCCCCN1CCCc2cc(/C=C/C3=[O+][B-](F)(C(F)(F)C(F)(F)C(F)(F)F)OC(/C=C/c4cc5c6c(c4)CCCN6CCC5)=C3Br)ccc21 (centres unmarked) [Compound S]	–	–	–	–	37%	633 nm	CC50 (PC 12 cells [4]): > 10000 nM
